Measured values as given in patent US8975441B2, “Process for preparing 2.2-dibromomalonamide” (Dow Global Technologies LLC, priority 2009, dated 2015).

Format: physicochemical
Settings: pH 7
Text: It has been discovered and is believed that the alkali earth metal base, which in some embodiments is part of the nitrile-amide-conversion composition, acts at basic pH values (i.e., at pH values greater than pH 7.0) to undesirably promote degradation of 2,2-dibromo-3-cyanoacetamide to undesirable products. […] As pH of the nitrile-amide-conversion composition becomes increasingly basic, the alkali earth metal base degrades increasing amounts of 2,2-dibromo-3-cyanoacetamide. This base-promoted degradation of 2,2-dibromo-3-cyanoacetamide is especially prevalent at pH 9.0 and higher. The invention process advantageously maintains pH of the reaction mixture in situ during conversion of 2,2-dibromo-3-cyanoacetamide to 2,2-dibromomalonamide in a pH range that minimizes or prevents base-promoted degradation of 2,2-dibromo-3-cyanoacetamide while at the same time facilitates the base-catalyzed conversion thereof to 2,2-dibromomalonamide.

Compound: NC(=O)C(Br)(Br)C(N)=O [2,2-dibromomalonamide]
- stability relative to 2,2-dibromo-3-cyanoacetamide: ≥ 10 times
